Experimental data reported in US4550186A, “Binuclear copper (II) carboxylates formed from amine-carboxyboranes” (Duke University, priority 1983, dated 1985).
Read-outs that look alike come from different tables or passages of the source.

Assays:
[1] = system: Phosphatidate Phosphohydrolase; test: In vitro liver enzyme study: phosphatidate phosphohydrolase; format: biochemical, mouse; details: in vitro CF1 liver, 30 min
Protocol: In vitro enzymatic studies were determined using 10% homogenates of CF1 male mouse liver with 50-200 μM of test drugs. In vivo enzymatic studies were determined using 10% homogenates of liver from CF1 male mice obtained after administering the agents for 16 days at a dose ranging from 2.5-20 mg/kg/day intraperitoneally. The liver homogenates for both in vitro and in vivo studies were prepared in 0.25M sucrose and 0.001M (ethylenedinitrilo)tetraacetic acid. Acetyl coenzyme A synthetase and adenosine triphosphate dependent citrate lyase activities were determined spectrophotometrically at 540 nm as the hydroxylamate of acetyl coenzyme A formed after 30 min at 37° C. Mitochondrial citrate exchange was determined by the procedure of Robinson et al [Eur. J. Biochem., 216, 63 (1970)] using ^14 C-sodium bicarbonate (41 mCi/mmol) incorporated into mitochondrial ^14 C-citrate after isolating rat mitochondria (9000 g×10 min) from the homogenates. The exchanges of the ^14 C-citrate were determined after incubating the mitochondrial fraction which was loaded with labeled citrate and test drugs for 10 min. Then the radioactivity was measured in the mitochondrial and supernantant fractions in scintillation fluid and expressed as a percentage. Cholesterol side chain oxidation was determined by the method of Kritchevsky and Tepper [Artherosclerosis, 18, 93 (1973)] using (26-^14 C) cholesterol (50 mCi/mmol) and mitochondria isolated from rat liver homogenates. […] Fatty acid synthetase activity was determined by the method of Brady et al [J. Biol. Chem., 235, 3093 (1960)] using [2-^14 C] malonyl-coenzyme A (37.5 mCi/mmol) which was incorporated into newly synthesized fatty acids that were extracted with ether and counted. Acyl transferase activity was determined with glycerol-3phosphate [L-2-^3 H(N)] […] HCl and counted. Phosphatidate phosphohydrolase activity was measured as the inorganic phosphate released after 30 min from phosphatidic acid by the method of Mavis et al [J. Lipid Res., 19, 467 (1978)]. […]

[2] = molecular target: T1, messenger ribonucleic acid polymerase (Mus musculus, UniProt P08775+Q8CFI7); test: In vivo messenger ribonucleic acid polymerase activity
T1 construct: enzymes isolated from nuclei; endogenous in cells; host or cells: Ehrlich ascites tumor cell nuclei, ammonium sulfate fraction
Protocol: CF1 male mice (~30 g) were implanted with 2×10^6 Ehrlich ascites tumor cells, intraperitoneally on Day 0. Compound I was suspended by homogenation in 0.05% polysorbate.80-water and administered intraperitoneally at 10 and 20 mg/kg for 9 days to determine its effectiveness for inhibition of tumor growth. Mice were sacrificed on Day 10, and the ascites fluid was collected from the peritoneal cavity. The volume and ascrit (packed cell volume) were determined for each animal and the percent inhibition of tumor growth was calculated. For the metabolic studies, mice were treated on Days 8 and 9 with 10 mg/kg of Compound I, intraperitoneally. The animal was sacrificed on Day 10 and the ascites fluid harvested. The in vitro metabolic studies were performed at […] final concentration of Compound I.
In vitro and in vivo nuclear deoxyribonucleic acid polymerase activity was determined on isolated Ehrlich ascites cell nuclei. The incubation was that described by Sawada et al [Can. Res., 34, 3341 (1974)] except that [methyl-^3 H] deoxythymidine triphosphate (82.4 Ci/mmol) was used. The acid insoluble nucleic acid was collected on GF/F filters and counted. Nuclear ribonucleic acid polymerase activities were determined on enzymes isolated from nuclei. […] The acid insoluble ribonucleic acid was collected on nitrocellulose filters and counted.

[3] = system: Ehrlich ascites lysate protein synthesis; test: Initiation/elongation of Ehrlich ascites lysate protein synthesis; format: biochemical, mouse; details: compared with pyrocatechol violet and emetine
Protocol: An in vitro method was used to determine if compound I was an initiation or an elongation inhibitor of Ehrlich ascites lysate protein synthesis by comparing inhibition with known standards, pyrocateochol violet and emetine, using 1 μCi ^3 H-leucine (24.7 Ci/mmol). The reaction medium was spotted on Whatman #1 filter paper disks, which after drying were treated for 10 min in boiling 5% trichloroacetic acid, for 10 min in cold 5% trichloroacetic acid and washed with cold 5% trichloroacetic acid, ether/ethanol (4:1) and ether. The disks were dried and counted.

## {Cu[(CH3)3 N.BH2 CO2 ]2.(CH3)3 N.BH2 COOH} [Compound I]
[1]; 50 μM
  Phosphatidate Phosphohydrolase: 77 ± 5 Percent Control
[1]; 100 μM
  Phosphatidate Phosphohydrolase: 63 ± 6 Percent Control
[1]; 200 μM
  Phosphatidate Phosphohydrolase: 35 ± 3 Percent Control
[2]
  Messenger ribonucleic acid polymerase activity: not affected
[2]; 10 mg/kg/day I.P. on Days 8 and 9
  Messenger ribonucleic acid polymerase activity: 96 ± 9 % Control
[3]
  inhibition of protein synthesis of Ehrlich ascites lysates (initiation vs elongation): lag of several minutes before inhibition is observed
